Active and inactive are the calls of the source.
What was measured:
[1] = target: Nonstructural protein 1 (Influenza A virus, UniProt Q194T2); assay type: functional, Influenza A virus (A/California/07/2009(H1N1))
[2] = target: T1, Hexokinase-1 (Homo sapiens, UniProt P19367); assay: HK1 enzyme activation by HKDC1 hits – biochemical, selectivity assay for HKDC1 activator project, dose response (AID 504762); assay type: functional
T1 sequence (P19367 whole entry): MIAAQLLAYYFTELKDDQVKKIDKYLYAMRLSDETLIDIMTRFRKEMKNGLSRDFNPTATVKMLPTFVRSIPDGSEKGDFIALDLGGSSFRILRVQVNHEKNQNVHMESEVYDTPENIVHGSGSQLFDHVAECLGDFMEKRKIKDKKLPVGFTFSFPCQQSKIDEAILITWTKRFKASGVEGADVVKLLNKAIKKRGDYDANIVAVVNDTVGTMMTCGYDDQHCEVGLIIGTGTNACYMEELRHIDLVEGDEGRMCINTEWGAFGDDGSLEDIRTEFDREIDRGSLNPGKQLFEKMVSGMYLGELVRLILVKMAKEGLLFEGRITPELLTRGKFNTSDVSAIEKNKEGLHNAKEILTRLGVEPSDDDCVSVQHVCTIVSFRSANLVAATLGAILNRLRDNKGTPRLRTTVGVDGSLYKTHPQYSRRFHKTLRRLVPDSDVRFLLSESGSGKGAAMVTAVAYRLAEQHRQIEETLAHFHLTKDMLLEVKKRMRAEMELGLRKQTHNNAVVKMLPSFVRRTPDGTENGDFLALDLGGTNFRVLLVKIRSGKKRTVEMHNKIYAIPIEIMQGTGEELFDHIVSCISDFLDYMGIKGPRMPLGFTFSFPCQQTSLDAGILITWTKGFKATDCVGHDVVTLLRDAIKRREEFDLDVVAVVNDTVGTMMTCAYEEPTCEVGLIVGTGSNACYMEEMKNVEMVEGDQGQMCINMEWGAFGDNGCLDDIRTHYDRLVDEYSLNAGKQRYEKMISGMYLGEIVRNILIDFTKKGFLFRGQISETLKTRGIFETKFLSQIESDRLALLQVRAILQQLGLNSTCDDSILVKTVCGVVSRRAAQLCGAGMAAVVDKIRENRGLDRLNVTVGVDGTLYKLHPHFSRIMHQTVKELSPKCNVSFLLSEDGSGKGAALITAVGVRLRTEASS

[3] = target: T2, Hexokinase HKDC1 (Homo sapiens, UniProt Q2TB90); assay: activation of HKDC1 glucose phosphorylation – biochemical, W721R variant, dose response (AID 504730); assay type: functional
T2 sequence (Q2TB90 whole entry): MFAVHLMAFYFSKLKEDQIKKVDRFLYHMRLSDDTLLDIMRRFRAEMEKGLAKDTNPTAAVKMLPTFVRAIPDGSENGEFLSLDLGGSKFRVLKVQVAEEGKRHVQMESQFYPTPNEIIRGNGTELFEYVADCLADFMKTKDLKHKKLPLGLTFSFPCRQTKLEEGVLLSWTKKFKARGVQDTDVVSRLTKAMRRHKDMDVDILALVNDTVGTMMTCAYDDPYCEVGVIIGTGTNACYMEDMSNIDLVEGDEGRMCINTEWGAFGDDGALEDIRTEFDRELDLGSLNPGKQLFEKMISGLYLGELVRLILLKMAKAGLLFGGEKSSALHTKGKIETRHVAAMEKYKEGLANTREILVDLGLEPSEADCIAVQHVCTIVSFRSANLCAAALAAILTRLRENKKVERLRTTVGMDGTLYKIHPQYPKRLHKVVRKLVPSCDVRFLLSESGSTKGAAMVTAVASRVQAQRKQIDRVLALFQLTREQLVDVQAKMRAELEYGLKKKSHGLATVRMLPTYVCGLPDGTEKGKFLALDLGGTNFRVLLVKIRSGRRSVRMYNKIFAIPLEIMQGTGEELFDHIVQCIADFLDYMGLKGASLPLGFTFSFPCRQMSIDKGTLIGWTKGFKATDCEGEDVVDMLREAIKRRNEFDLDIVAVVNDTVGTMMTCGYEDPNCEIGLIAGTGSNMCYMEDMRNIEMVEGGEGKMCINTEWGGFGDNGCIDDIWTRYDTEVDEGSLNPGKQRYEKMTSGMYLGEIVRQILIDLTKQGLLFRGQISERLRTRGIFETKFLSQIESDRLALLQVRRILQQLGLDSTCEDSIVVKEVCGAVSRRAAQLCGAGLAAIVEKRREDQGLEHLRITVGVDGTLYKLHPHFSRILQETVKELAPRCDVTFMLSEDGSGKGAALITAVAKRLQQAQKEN

[4] = target: Peroxisome proliferator-activated receptor gamma/Nuclear receptor coactivator 1 (Homo sapiens, UniProt P37231); assay: (§1) TR-FRET dose response biochemical High Throughput Screening assay for agonists of the steroid receptor coactivator 1 (SRC-1) recruitment by the peroxisome proliferator-activated receptor gamma (PPAR gamma): non-selective agonists. [Related pubchem assays (depositor defined):AID1300, AID1808, AID504735, AID631]; assay type: protein assay
Chain of Peroxisome proliferator-activated receptor gamma/Nuclear receptor coactivator 1 (P37231 whole entry): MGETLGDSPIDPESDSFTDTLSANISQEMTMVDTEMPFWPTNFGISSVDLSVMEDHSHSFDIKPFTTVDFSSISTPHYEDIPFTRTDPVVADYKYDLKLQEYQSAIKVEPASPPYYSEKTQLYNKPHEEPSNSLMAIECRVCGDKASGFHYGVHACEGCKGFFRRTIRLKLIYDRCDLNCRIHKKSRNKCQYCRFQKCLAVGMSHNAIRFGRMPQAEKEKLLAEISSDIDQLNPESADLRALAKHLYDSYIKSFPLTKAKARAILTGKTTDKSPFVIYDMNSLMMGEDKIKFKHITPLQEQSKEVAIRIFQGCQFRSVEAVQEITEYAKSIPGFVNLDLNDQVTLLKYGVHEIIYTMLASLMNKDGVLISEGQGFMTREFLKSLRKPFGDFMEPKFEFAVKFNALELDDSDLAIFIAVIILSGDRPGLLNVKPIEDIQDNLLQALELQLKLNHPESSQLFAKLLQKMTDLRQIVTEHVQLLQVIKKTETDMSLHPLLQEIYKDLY
Chain of Peroxisome proliferator-activated receptor gamma/Nuclear receptor coactivator 1 (Q15788 whole entry, further chain): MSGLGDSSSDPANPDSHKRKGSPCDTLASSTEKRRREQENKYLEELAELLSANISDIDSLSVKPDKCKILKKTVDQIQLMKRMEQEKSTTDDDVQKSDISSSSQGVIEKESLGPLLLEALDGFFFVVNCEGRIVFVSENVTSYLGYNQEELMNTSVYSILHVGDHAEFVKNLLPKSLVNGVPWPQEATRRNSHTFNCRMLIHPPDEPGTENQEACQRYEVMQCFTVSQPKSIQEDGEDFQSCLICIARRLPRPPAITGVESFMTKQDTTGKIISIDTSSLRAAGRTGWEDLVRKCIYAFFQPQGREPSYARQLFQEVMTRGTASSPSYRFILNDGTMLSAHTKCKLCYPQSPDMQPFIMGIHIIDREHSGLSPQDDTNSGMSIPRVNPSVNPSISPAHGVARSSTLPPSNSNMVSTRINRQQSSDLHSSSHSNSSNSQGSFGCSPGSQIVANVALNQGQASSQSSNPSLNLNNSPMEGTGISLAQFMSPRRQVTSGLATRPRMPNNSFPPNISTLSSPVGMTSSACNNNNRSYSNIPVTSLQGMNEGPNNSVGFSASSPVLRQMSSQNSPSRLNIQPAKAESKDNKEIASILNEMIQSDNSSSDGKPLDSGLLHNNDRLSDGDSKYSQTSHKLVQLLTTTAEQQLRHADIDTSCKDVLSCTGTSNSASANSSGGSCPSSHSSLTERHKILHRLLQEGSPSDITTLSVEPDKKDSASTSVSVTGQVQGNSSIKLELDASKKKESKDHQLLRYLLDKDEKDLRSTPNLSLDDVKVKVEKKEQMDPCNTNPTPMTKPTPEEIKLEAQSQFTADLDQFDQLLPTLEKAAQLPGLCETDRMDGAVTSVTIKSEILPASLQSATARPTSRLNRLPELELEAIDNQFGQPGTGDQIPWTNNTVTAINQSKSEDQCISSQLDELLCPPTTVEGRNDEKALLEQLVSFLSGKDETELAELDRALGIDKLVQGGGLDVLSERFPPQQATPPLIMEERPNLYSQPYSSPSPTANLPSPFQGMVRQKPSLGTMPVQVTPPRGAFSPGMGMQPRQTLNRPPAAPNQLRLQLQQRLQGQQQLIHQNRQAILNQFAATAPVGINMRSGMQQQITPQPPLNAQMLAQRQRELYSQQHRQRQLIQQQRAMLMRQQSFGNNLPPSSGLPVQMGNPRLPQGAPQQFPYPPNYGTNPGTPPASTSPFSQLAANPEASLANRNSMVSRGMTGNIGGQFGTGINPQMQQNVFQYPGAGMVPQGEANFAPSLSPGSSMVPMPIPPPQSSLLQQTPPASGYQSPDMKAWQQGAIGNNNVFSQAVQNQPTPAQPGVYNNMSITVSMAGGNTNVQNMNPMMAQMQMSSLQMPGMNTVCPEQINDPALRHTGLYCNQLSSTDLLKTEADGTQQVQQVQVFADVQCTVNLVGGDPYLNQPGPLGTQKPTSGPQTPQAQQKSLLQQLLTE

[5] = target: Peroxisome proliferator-activated receptor gamma/Nuclear receptor coactivator 3 (Homo sapiens, UniProt P37231); assay: as §1, with “3 (SRC-3)” for “1 (SRC-1)”, “assays: 1301 (Confirmation screen.), 1048 (Primary screen.)]” for “assays (depositor defined):AID1300, AID1808, AID504735, AID631]”; assay type: functional
Chain of Peroxisome proliferator-activated receptor gamma/Nuclear receptor coactivator 3 (P37231 whole entry): as the sequence (P37231 whole entry) above
Chain of Peroxisome proliferator-activated receptor gamma/Nuclear receptor coactivator 3 (Q9Y6Q9 whole entry, further chain): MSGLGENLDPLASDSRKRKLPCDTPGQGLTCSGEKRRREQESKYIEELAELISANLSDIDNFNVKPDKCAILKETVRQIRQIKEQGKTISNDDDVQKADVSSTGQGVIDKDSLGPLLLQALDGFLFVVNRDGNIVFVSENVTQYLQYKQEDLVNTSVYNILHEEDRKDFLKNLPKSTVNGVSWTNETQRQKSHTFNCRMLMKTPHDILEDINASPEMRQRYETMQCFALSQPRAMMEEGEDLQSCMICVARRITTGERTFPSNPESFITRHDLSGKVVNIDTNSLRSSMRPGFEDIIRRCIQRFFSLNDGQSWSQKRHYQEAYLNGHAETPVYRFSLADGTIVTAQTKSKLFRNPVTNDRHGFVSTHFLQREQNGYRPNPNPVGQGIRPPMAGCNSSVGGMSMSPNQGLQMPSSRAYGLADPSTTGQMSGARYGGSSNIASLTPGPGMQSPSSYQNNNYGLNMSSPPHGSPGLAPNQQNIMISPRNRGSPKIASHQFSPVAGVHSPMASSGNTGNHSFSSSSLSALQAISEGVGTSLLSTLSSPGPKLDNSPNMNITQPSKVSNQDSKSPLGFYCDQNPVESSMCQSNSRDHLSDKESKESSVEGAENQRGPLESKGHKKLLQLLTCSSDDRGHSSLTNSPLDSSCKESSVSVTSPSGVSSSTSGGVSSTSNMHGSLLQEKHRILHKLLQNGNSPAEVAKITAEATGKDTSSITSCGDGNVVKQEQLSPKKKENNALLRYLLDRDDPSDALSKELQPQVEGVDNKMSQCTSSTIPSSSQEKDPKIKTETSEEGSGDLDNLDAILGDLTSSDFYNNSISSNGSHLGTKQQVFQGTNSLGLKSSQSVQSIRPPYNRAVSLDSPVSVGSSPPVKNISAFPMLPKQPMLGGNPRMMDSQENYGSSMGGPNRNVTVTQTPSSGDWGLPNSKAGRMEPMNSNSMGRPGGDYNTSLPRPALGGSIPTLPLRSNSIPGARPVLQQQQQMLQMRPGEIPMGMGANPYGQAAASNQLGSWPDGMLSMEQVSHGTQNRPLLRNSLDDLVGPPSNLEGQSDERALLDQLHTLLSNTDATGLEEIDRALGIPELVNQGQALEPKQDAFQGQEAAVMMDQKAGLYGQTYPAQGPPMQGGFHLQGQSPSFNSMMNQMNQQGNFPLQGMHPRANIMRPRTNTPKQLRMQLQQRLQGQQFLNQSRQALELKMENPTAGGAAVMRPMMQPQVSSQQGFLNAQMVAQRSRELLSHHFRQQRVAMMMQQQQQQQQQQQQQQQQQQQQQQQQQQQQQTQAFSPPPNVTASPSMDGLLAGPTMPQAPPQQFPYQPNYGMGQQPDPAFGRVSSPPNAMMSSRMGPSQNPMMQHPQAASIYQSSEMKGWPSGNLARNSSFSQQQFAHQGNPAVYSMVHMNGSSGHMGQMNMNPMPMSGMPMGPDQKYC

[6] = target: Peroxisome proliferator-activated receptor gamma/Nuclear receptor coactivator 2 (Homo sapiens, UniProt P37231); assay: TR-FRET dose response biochemical High Throughput Screening assay for agonists of the steroid receptor coactivator 2 (SRC-2) recruitment by the peroxisome proliferator-activated receptor gamma (PPAR gamma): non-selective agonists. [Related pubchem assays: 1297, 1032 ]; assay type: functional
[7] = target: T3, Alkaline phosphatase, tissue-nonspecific isozyme (Homo sapiens, UniProt P05186); assay: potency against alkaline phosphatase TNAP – biochemical, luminescent, dose response, SAR follow-up (AID 1056)
T3 sequence (P05186 whole entry): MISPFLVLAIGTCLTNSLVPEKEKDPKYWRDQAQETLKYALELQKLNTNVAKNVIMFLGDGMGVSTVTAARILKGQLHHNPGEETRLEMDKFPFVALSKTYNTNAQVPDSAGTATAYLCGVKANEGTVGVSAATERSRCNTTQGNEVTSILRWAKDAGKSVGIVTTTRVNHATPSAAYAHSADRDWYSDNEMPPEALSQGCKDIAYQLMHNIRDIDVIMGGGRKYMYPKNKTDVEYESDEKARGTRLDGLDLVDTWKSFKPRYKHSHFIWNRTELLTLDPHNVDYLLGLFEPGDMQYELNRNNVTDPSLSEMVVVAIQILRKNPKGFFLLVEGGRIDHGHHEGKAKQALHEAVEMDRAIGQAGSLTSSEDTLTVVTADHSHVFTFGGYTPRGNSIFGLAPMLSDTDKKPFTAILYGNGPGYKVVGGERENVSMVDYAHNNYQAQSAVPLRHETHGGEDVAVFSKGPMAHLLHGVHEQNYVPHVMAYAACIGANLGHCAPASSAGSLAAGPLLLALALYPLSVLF

[8] = NIH3T3 cell viability loss – ATP luminescence, mouse fibroblasts, counter-screen, dose response (AID 2010); assay type: functional, cell-based;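 note: cells exposed to compound for about 90 hours before reading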
[9] = Trypanosoma cruzi growth suppression in host cells – NIH3T3 host cells, beta-gal luminescence, confirmation (AID 2044); assay type: functional, cell-based;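 note: intracellular parasites grown in NIH/3T3 mouse fibroblasts as host cells; luminescent beta-galactosidase reporter signal from transgenic T. cruzi replicating inside host cells; inhibitors lower the luminescence signal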
[10] = target: G-protein coupled receptor 55 (Homo sapiens, UniProt Q9Y2T6); assay: inhibition of LPI-stimulated GPR55 beta-arrestin translocation – imaging, U2OS, beta-arrestin-GFP, LPI agonist, primary screen (AID 2013); assay type: functional;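 note: antagonist potency measured as reduced agonist-driven arrestin aggregation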
Chain of G-protein coupled receptor 55 (Q9Y2T6 whole entry): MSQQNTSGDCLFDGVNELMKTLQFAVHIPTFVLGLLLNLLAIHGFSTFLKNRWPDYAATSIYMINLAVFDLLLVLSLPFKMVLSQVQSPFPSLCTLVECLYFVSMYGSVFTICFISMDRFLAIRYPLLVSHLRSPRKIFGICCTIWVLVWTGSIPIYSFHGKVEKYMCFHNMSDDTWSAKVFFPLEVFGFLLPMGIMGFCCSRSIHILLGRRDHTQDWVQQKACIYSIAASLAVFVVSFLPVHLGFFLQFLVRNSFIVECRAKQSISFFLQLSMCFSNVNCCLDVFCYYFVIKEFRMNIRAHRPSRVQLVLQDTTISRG

[11] = target: T4, Ubiquitin-conjugating enzyme E2 N (Homo sapiens, UniProt P61088); assay type: functional
T4 sequence (P61088 whole entry): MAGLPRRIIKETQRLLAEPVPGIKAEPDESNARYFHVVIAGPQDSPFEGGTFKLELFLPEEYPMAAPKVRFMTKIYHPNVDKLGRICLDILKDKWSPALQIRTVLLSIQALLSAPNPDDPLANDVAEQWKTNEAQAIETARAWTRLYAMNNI

[12] = target: T4, Ubiquitin-conjugating enzyme E2 N; assay type: functional; remark: listed apart in the source
[13] = target: T5, Bcl-2-related protein A1 (Mus musculus, UniProt Q07440); assay type: functional;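 note: confirmatory dose–response counterscreen on Bfl-1, used to check hits from a UBC13 polyubiquitin inhibitor campaign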
T5 sequence (Q07440 whole entry): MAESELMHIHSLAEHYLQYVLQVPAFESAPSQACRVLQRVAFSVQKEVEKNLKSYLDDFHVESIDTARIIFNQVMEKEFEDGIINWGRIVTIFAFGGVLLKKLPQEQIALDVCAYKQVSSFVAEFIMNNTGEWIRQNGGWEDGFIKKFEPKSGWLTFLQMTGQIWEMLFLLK

[14] = target: T6, Hexokinase (Trypanosoma brucei, UniProt Q38C41); assay: Confirmation assay for inhibitors of Trypanosoma brucei hexokinase 1-Analogue-first series. [Related pubchem assays (depositor defined):AID1430, AID1632, AID2516, AID2560, AID2579, AID2600, AID449725, AID492951]; assay type: functional
T6 sequence (Q38C41 whole entry): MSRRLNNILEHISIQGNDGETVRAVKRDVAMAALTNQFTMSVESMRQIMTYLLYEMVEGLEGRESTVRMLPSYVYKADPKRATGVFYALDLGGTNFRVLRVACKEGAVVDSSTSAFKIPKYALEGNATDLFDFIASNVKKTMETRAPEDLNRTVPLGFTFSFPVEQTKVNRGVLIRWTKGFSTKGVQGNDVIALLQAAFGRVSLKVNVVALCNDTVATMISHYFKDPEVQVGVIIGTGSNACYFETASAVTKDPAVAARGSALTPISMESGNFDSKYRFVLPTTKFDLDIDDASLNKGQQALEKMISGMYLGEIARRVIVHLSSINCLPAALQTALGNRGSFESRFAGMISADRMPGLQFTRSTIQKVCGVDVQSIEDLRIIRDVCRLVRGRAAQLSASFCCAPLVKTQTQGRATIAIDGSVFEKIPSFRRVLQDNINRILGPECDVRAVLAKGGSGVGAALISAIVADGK

[15] = target: Fatty acid synthase (Homo sapiens, UniProt P49327); assay: inhibition of human FAS-TE enzyme activity – biochemical, kinetic fluorescence intensity, dose response (AID 624326); assay type: functional;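 note: rate of fluorescence rise from hydrolysis of a fluorogenic O-methyl fluorescein ester substrate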
[16] = tested on: H9c2; assay: cells; assay type: functional, cell-based; conditions: Rattus norvegicus, H9c2, Myocardium;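 note: confirmatory concentration-response retest of ultra-high-throughput screening hits for modulation of myocardial damage; cell death induced by hydrogen peroxide oxidative stress; compound pretreatment for 60 min then peroxide exposure for 2 h; potency is for protecting the cells against peroxide damage rather than for killing them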

Chain of Nonstructural protein 1 (Q194T2 whole entry): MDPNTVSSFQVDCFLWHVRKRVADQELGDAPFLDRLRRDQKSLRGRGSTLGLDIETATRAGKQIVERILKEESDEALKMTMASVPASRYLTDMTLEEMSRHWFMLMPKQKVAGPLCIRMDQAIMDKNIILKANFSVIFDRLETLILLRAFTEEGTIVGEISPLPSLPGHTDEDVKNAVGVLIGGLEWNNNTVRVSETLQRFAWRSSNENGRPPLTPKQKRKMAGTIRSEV

With S=C(NCc1ccccn1)NN=Cc1ccccn1 the IC50 [1] was 3.89 µM (active), the EC50 [2] was > 80 µM (inactive) and the EC50 [3] was 27.8 µM (inactive).

For CCOC(=O)C1CCN(C(=O)CSc2c3c(nc4ccccc24)CCC3)CC1, the EC50 [4] was > 79.4 µM (inactive), the EC50 [5] was > 79.4 µM (not active) and the EC50 [6] was > 79.4 µM (not active).

With COc1cc(C(=O)CSc2nc(C)cc(C)n2)ccc1O the IC50 [7] was > 100 µM (inactive).

With O=C(NC12CC3CC(CC(C3)C1)C2)c1ccc(-c2ccc(Cl)cc2)o1 the EC50 [8] was > 60 µM (not active), the EC50 [9] was 2.11 µM (active) and the IC50 [10] was 0.598 µM (active).

With COC(=O)c1ccc(Cn2c(O)c(/N=N/C(=N)S)c3ccccc32)o1 the IC50 [11] was > 20 µM (inactive), the IC50 [12] was 14.1 µM (active) and the IC50 [13] was > 20 µM (inactive).

For COc1cccc(NC(=O)Cn2sc3ccccc3c2=O)c1, the IC50 [14] was 5.03 µM (active).

In the case of Nc1ccc(N2CCCCC2)c(S(=O)(=O)Nc2ccccc2Cl)c1, the IC50 [10] is reported as 3.53 µM (active).

With O=C(Nc1nc(-c2ccc(S(=O)(=O)N3CCCC3)cc2)cs1)C1COc2ccccc2O1 (stereo not given) the EC50 [4] was 31 µM (inactive), the IC50 [15] was 1.28 µM (active) and the EC50 [5] was > 79.4 µM (not active). The EC50 [6] was 27.7 µM (not active) and the IC50 [16] was > 79 µM (inactive).

— ChEMBL document CHEMBL1201862, “PubChem BioAssay data set” (2004)
